The values below come from patent US20240299360A1, “ADAMTS INHIBITORS, PREPARATION METHODS AND MEDICINAL USES THEREOF” (Jiangsu Hengrui Pharmaceuticals Co., Ltd., priority 2020, published 2024).

In test [1] the target is ADAMTS-4 recombinant protein (Homo sapiens (Human), UniProt O75173). Put plainly: In vitro fluorescence (FRET-peptide) enzymatic assay of ADAMTS-4 activity. The test is classed as biochemical. Particulars: FRET peptide substrate 15 μM, 10 nM enzyme, 37° C. 3 hours. In short, it runs like this:
(§1)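 Enzyme (10 nM final) was preincubated with compound for 15 min at room temperature in 50 mM HEPES pH 7.5, 100 mM NaCl, 5 mM CaCl2, 0.1% CHAPS, 5% glycerol. FRET peptide was then added (15 μM for ADAMTS-4, 8 μM for ADAMTS-5), and fluorescence (Ex 490/Em 520 nm) was read after 3 h at 37° C. IC50 was derived from four-parameter fits.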

Test [2] deals with T1, ADAMTS-5 recombinant protein (Homo sapiens (Human), UniProt Q9UNA0). Put plainly: In vitro fluorescence (FRET-peptide) enzymatic assay of ADAMTS-5 activity. The test is classed as biochemical. Particulars: FRET peptide substrate 8 μM, 10 nM enzyme, 37° C. 3 hours. In outline:
as §1

In test [3] the target is T1, ADAMTS-5 recombinant protein. Put plainly: In vitro ELISA of ADAMTS-5 activity (Aggrecan-IGD enzymatic assay). Particulars: aggrecan-IGD substrate, ARGSVIL-peptide ELISA, 37° C. 45 minutes. It is filed as biochemical. In outline:
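Recombinant ADAMTS-5 (0.3 nM diluted) was preincubated with compound 15 min at room temperature in 50 mM HEPES pH 7.5, 100 mM NaCl, 5 mM CaCl2, 0.1% CHAPS, 5% glycerol. Aggrecan-IGD substrate (T331-G458, His-tagged; 100 nM diluted) was then added for 45 min at 37 °C. ARGSVIL neoepitope was quantified by ELISA (A450) against a 4PL standard curve, and IC50 came from a four-parameter fit.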
A general note: In an ELISA, binding on a coated surface is turned into a signal by an enzyme label.

Test [4] concerns mouse femoral head cartilage. The experiment in a line: Mouse explant assay (IL-1α induced GAG release). It is filed as cell-based. Particulars: inhibition of GAG release, IL-1α 1 ng/ml, 72 hours; for inhibition at 2 µM: compound 2 μM; for inhibition at 20 µM: compound 20 μM. As to the method: In this assay, fresh mouse femoral head cartilage was treated with IL-1α protein (Sigma-Aldrich, catalog #12778) in culture media, which induces the cartilage catabolism. Then, the GAGs attached to the cleaved aggrecan fragments (released in the media) and the GAGs attached to the intact aggrecan were measured by dimethylmethylene blue dye in the Glycosaminoglycans Assay Kit (Chondrex, catalog #6022).
Femoral head cartilage samples were isolated from mice (25 days old, male, C57BL/6, from Charles River Lab) and put into 2.0 ml tubes filled-up with media (DMEM, 10% FBS, 4 mM Glutamine, penicillin-streptomycin, 20 mM HEPES). Two hundred μl of media without FBS was added to each well of a 48-well plate, and one piece of cartilage was transferred to a well in the plate. Then the media was aspirated, and compounds and IL-1α protein were added to the plate in a total volume of 400 μl of fresh media without FBS. The final concentration of IL-1α was 1 ng/ml. The plate was incubated at 37° C. for 72 hours in a humidified incubator with 5% CO2 supply.
The supernatant was transferred to a 1.5 ml tube and kept at −20° C. Each cartilage sample was transferred to another 1.5 ml tube containing 400 μl of freshly made papain solution. The papain solution contained 125 μg/ml papain (Sigma-Aldrich, catalog #P3125), 0.1 M sodium acetate (Sigma-Aldrich, catalog #S7899), pH 5.5 and 5 mM EDTA and 5 mM L-cysteine-HCl (Sigma-Aldrich, catalog #C7880). The cartilage samples were kept rocking in a 60° C. water bath for 24 hours. The lysates were vortexed for 10 seconds and spinned at 10,000 rpm for 2 minutes.
Both the supernatant and the lysate samples were diluted with PBS and mixed with 100 μl of dye from the Glycosaminoglycans Assay Kit. The optical density from each well was determined with a TECAN plate reader set to a wavelength of 525 nm.
The concentrations of GAGs in the supernatant and lysates were determined based on the standard curve with a dose range of chondroitin sulfate provided in the kit. The percentage of GAG release was calculated as the following
The test compound effect was expressed as the percent of inhibition using the following formula: […]

pIC50: −log10 of the molar value.

Chain of ADAMTS-4 recombinant protein (O75173 213-685): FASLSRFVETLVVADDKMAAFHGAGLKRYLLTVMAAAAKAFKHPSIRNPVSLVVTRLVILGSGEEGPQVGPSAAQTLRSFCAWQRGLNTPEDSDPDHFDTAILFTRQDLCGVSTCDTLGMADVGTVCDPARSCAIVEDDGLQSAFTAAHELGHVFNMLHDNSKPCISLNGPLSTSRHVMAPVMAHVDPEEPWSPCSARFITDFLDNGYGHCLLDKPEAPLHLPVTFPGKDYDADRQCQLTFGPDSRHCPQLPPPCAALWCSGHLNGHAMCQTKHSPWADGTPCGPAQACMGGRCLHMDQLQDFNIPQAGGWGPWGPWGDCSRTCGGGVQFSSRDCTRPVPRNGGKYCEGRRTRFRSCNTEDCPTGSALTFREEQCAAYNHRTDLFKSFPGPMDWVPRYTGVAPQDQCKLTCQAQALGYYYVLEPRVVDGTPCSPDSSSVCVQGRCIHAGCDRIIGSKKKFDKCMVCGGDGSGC
T1 sequence (Q9UNA0 262-622): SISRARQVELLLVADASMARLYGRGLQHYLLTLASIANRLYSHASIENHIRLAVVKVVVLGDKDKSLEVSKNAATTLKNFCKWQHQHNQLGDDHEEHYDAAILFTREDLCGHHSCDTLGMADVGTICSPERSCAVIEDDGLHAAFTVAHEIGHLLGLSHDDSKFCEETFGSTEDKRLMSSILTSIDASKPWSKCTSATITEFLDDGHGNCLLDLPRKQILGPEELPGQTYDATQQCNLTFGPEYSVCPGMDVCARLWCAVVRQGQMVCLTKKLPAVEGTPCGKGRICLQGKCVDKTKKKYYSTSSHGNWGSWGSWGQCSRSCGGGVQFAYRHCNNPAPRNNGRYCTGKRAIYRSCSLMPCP

The term pIC50 denotes the IC50 on a negative log10 scale, so that one unit is a factor of ten. As usually defined, the inhibition is the percentage by which the read-out fell short of the control. A low value points to a weak effect. On to `O=C1NC(=O)[C@](CCC(=O)N2CCc3ccc(F)cc3CC2)(C2CC2)N1` [Example 44, (S)-5-cyclopropyl-5-(3-(7-fluoro-1,2,4,5-tetrahydro-3H-benzo[d]azepin-3-yl)-3-oxopropyl)imidazolidine-2,4-dione], for which the figures for the negative-log IC50 (pIC50) in test [1], in test [2] and in test [3] were 7.82, 7.43 and 7.29, respectively. 2 µM produced 13% inhibition in test [4]. Also, the inhibition at 20 µM in test [4] worked out at 70%.

`O=C1NC(=O)[C@](CCC(=O)N2CCc3ccc(C(F)(F)F)cc3CC2)(C2CC2)N1` [Example 45, (S)-5-cyclopropyl-5-(3-oxo-3-(7-(trifluoromethyl)-1,2,4,5-tetrahydro-3H-benzo[d]azepin-3-yl)propyl)imidazolidine-2,4-dione]: the pIC50 is 7.72 in test [1], 7.92 in test [2] and 7.60 in test [3]. This compound also yielded an inhibition at 2 µM in test [4] of 45%. The compound further gave an inhibition at 20 µM in test [4] of 96%.

As to `O=C1NC(=O)[C@](CCC(=O)N2Cc3ccc(C(F)F)cc3C2)(C2CC2)N1` [Example 52, (S)-5-cyclopropyl-5-(3-(5-(difluoromethyl)isoindolin-2-yl)-3-oxopropyl)imidazolidine-2,4-dione], the figures for the pIC50 in test [1], in test [2] and in test [3] were 7.52, 7.18 and 7.32, respectively. Besides, in test [4], 2 µM produced 10% inhibition. Moreover, the inhibition at 20 µM in test [4] is 48%.

As for `O=C1NC(=O)[C@](CCC(=O)N2Cc3cc(Br)c(C(F)(F)F)cc3C2)(C2CC2)N1` [Example 59, (S)-5-(3-(5-bromo-6-(trifluoromethyl)isoindolin-2-yl)-3-oxopropyl)-5-cyclopropylimidazolidine-2,4-dione], the pIC50 in test [1] is 7.09; in test [2], 7.34; in test [3], 7.34. The compound also came in with an inhibition at 2 µM in test [4] of 16%. This compound registered an inhibition at 20 µM in test [4] of 66%.

For the compound `C[C@@H]1c2cc(Cl)c(Cl)cc2CN1C(=O)CC[C@@]1(C2CC2)NC(=O)NC1=O` [Example 66-2, (S)-5-cyclopropyl-5-(3-((R)-5,6-dichloro-1-methylisoindolin-2-yl)-3-oxopropyl)imidazolidine-2,4-dione], the figures for the negative logarithm of the IC50 (pIC50) in test [1], in test [2] and in test [3] were 7.92, 8.00 and 7.72, respectively. This compound also came in with an inhibition at 2 µM in test [4] of 23%. This compound also showed an inhibition at 20 µM in test [4] of 87%.
